# Reference: patent US12565490B2, “Inhibitors of Receptor Interacting Protein Kinase I for the treatment of disease” (Board of Regents, The University of Texas System, priority 2020, dated 2026)
# Test system: human monocytic cell line U937
# Test: Human U937 cellular necroptosis assay
# Format: cell-based
# Conditions: U-937; U937 cells stimulated with 25 ng/mL human TNFalpha and 25 μM z-VAD-FMK; 22 hr; viability by Cell Titer-Glo 2.0; read-out: hU937 IC50
# Protocol: Human U937 Cellular Necroptosis Assay
# The human monocytic cell line U937 (CRL-1593.2) may be purchased from ATCC. The cells are routinely maintained in RPMI-1640 Medium (Gibco, Catalog #11875-093) supplemented with 10% heat inactivated fetal bovine serum (Gibco, Catalog #16140-071), 100 units/mL penicillin and 100 μg/mL streptomycin (Gibco, Catalog #15140-122), in a humidified incubator (37° C., 5% CO2). For the assay, cells are resuspended in RPMI-1640 phenol red free Media (Gibco, Catalog #11835-030) supplemented with 10% fetal bovine serum (Sigma, Catalog #F2442), 100 units/mL penicillin and 100 ug/mL streptomycin. Cells are stimulated with 25 ng/mL human TNFalpha (Cell Sciences, Catalog #CSI15659B) and 25 μM z-VAD-FMK (R&D Systems, Catalog #FMK001) followed by seeding 5000 cells per well in a volume of 40 μL to a white, CulturPlate-384 (Perkin Elmer, Catalog #6007680). Stock solutions of the test compounds are prepared in 100% DMSO (Sigma, Catalog #D2650) and serially diluted 1:3 using 100% DMSO. Compounds are additionally diluted 1:40 in assay medium, and 10 μL/well was transferred to the plate. Following the compound addition, the plate is incubated at 37° C. and 5% CO2 for 22 hr. After 22 hr, viability is assessed with the addition of 20 μL of Cell Titer-Glo 2.0 (Promega, Catalog #G9243). The tissue culture plate is shaken on an orbital shaker at 300 RPM for 15 minutes at room temperature in the dark. Luminescence is measured using a PerkinElmer Envision™ plate reader. IC50 values are calculated using a four-parameter logistic curve fit using Genedata Screener software. Compounds disclosed herein are expected to have activity in this assay.
row,SMILES,IC50 [nM]
1,"CN1C(=O)[C@@H](NC(=O)c2ncc(Cl)c(C3COCCO3)n2)COc2cc(Cl)cnc21 (single isomer, unassigned) [Example 163b]",87.9
2,"COc1cc2c(cn1)N(C)C(=O)[C@@H](NC(=O)c1ncc(C)c(-c3ccccc3)n1)CC2 (stereo in doubt) [Example 11, N-(7-methoxy-1-methyl-2-oxo-2,3,4,5-tetrahydro-1H-pyrido[3,4-b]azepin-3-yl)-5-methyl-4-phenylpyrimidine-2-carboxamide]",459
3,"Cc1ccc(-c2nc(C(=O)N[C@H]3COc4cc(C#N)ccc4N(C)C3=O)ncc2C)cc1F [Example 1, (S)—N-(8-cyano-5-methyl-4-oxo-2,3,4,5-tetrahydrobenzo[b][1,4]oxazepin-3-yl)-4-(3-fluoro-4-methylphenyl)-5-methylpyrimidine-2-carboxamide]",12.4
4,"O=C(NC1CCc2ccccc2NC1=O)c1ncc(C2CC2)c(-c2ccccc2)n1 (stereo not drawn) [Example 2, 5-cyclopropyl-N-(2-oxo-2,3,4,5-tetrahydro-1H-benzo[b]azepin-3-yl)-4-phenylpyrimidine-2-carboxamide]",509
5,"Cc1cnc(C(=O)NC2CCc3ccccc3NC2=O)nc1-c1ccccc1 (stereo not drawn) [Example 3, 5-methyl-N-(2-oxo-2,3,4,5-tetrahydro-1H-benzo[b]azepin-3-yl)-4-phenylpyrimidine-2-carboxamide]",18.5
6,"O=C(NC1CCc2ccccc2NC1=O)c1nccc(-c2ccccc2)n1 (stereo not drawn) [Example 4, N-(2-oxo-2,3,4,5-tetrahydro-1H-benzo[b]azepin-3-yl)-4-phenylpyrimidine-2-carboxamide]",2160
7,"Cc1cnc(C(=O)N[C@H]2COc3cc(C#N)ccc3N(C)C2=O)nc1-c1ccccc1 [Example 5, (S)-N-(8-cyano-5-methyl-4-oxo-2,3,4,5-tetrahydro-benzo[b][1,4]oxazepin-3-yl)-5-methyl-4-phenylpyrimidine-2-carboxamide]",15.1
8,"Cc1cnc(C(=O)N[C@H]2COc3cccnc3N(C)C2=O)nc1-c1ccccc1 [Example 6, (S)-5-methyl-N-(5-methyl-4-oxo-2,3,4,5-tetrahydropyrido[3,2-b][1,4]oxazepin-3-yl)-4-phenylpyrimidine-2-carboxamide]",12.5
9,"Cc1cnc(C(=O)NC2CCc3cc(F)cc(F)c3NC2=O)nc1-c1ccccc1 (stereo not drawn) [Example 7, N-(7,9-difluoro-2-oxo-2,3,4,5-tetrahydro-1H-benzo[b]azepin-3-yl)-5-methyl-4-phenylpyrimidine-2-carboxamide]",22.2
10,"O=C(NC1CCc2ccccc2NC1=O)c1nc(-c2ccccc2)c(Cl)cc1Cl (stereo not drawn) [Example 8, 3,5-dichloro-N-(2-oxo-2,3,4,5-tetrahydro-1H-benzo[b]azepin-3-yl)-6-phenylpicolinamide]",354
11,"Cc1cnc(C(=O)N[C@H]2CCc3ccccc3NC2=O)nc1-c1ccc(F)cc1 [Example 9, (S)-4-(4-fluorophenyl)-5-methyl-N-(2-oxo-2,3,4,5-tetrahydro-1H-benzo[b]azepin-3-yl)pyrimidine-2-carboxamide]",10.2
12,"Cc1cnc(C(=O)N[C@H]2CCc3ccccc3NC2=O)nc1-c1ccc(F)c(F)c1 [Example 10, (S)-4-(3,4-difluorophenyl)-5-methyl-N-(2-oxo-2,3,4,5-tetrahydro-1H-benzo[b]azepin-3-yl)pyrimidine-2-carboxamide]",15.4
13,"Cc1cnc(C(=O)N[C@H]2CCc3ccccc3NC2=O)nc1-c1cccc(F)c1 [Example 12, (S)-4-(3-fluorophenyl)-5-methyl-N-(2-oxo-2,3,4,5-tetrahydro-1H-benzo[b]azepin-3-yl)pyrimidine-2-carboxamide]",14.6
14,"Cc1ccc(-c2nc(C(=O)N[C@H]3CCc4ccccc4NC3=O)ncc2C)cc1 [Example 13, (S)-5-methyl-N-(2-oxo-2,3,4,5-tetrahydro-1H-benzo[b]azepin-3-yl)-4-(p-tolyl)pyrimidine-2-carboxamide]",27.6
15,"Cc1cnc(C(=O)N[C@H]2COc3cc(C#N)ccc3N(C)C2=O)nc1N1CCCCC1 [Example 14, (S)-N-(8-cyano-5-methyl-4-oxo-2,3,4,5-tetrahydro-benzo[b][1,4]oxazepin-3-yl)-5-methyl-4-(piperidin-1-yl)-pyrimidine-2-carboxamide]",119
16,"Cc1cnc(C(=O)NC2CCn3nc(C(F)(F)F)cc3N(C)C2=O)nc1-c1ccccc1 (stereo not drawn) [Example 15, 5-methyl-N-(4-methyl-5-oxo-2-(trifluoromethyl)-5,6,7,8-tetrahydro-4H-pyrazolo[1,5-a][1,3]diazepin-6-yl)-4-phenyl-pyrimidine-2-carboxamide]",498
17,"Cc1cnc(C(=O)N[C@@H]2C(=O)N(C)c3ncccc3O[C@@H]2C)nc1-c1ccccc1 [Example 16, N-((2R,3S)-2,5-dimethyl-4-oxo-2,3,4,5-tetrahydropyrido[3,2-b][1,4]oxazepin-3-yl)-5-methyl-4-phenylpyrimidine-2-carboxamide]",36.1
18,"Cc1cnc(C(=O)N[C@H]2COc3cc(C#N)ccc3N(C)C2=O)nc1-c1ccc(F)c(F)c1 [Example 17, (S)-N-(8-cyano-5-methyl-4-oxo-2,3,4,5-tetrahydro-benzo[b][1,4]oxazepin-3-yl)-4-(3,4-difluorophenyl)-5-methyl-pyrimidine-2-carboxamide]",40.8
19,"Cc1cnc(C(=O)Nc2cccc(Cl)c2F)nc1-c1ccccc1 [Example 18, N-(3-chloro-2-fluorophenyl)-5-methyl-4-phenylpyrimidine-2-carboxamide]",1890
20,"Cc1cnc(C(=O)N[C@H]2COc3cc(C#N)ccc3N(C)C2=O)nc1N1CCC(F)(F)CC1 [Example 19, (S)-N-(8-cyano-5-methyl-4-oxo-2,3,4,5-tetrahydro-benzo[b][1,4]oxazepin-3-yl)-4-(4,4-difluoropiperidin-1-yl)-5-methylpyrimidine-2-carboxamide]",748
21,"Cc1cnc(C(=O)N[C@H]2COc3cc(C#N)ccc3N(C)C2=O)nc1N1CCCC1 [Example 20, (S)-N-(8-cyano-5-methyl-4-oxo-2,3,4,5-tetrahydro-benzo[b][1,4]oxazepin-3-yl)-5-methyl-4-(pyrrolidin-1-yl)-pyrimidine-2-carboxamide]",482
22,"Cc1cnc(C(=O)N[C@H]2COc3cccnc3N(C)C2=O)nc1-c1ccc(F)c(F)c1 [Example 21, (S)-4-(3,4-difluorophenyl)-5-methyl-N-(5-methyl-4-oxo-2,3,4,5-tetrahydropyrido[3,2-b][1,4]oxazepin-3-yl)pyrimidine-2-carboxamide]",14.8
23,"Cc1cnc(C(=O)N[C@H]2COc3ccc(Br)cc3N(C)C2=O)nc1-c1ccccc1 [Example 22, (S)-N-(7-bromo-5-methyl-4-oxo-2,3,4,5-tetrahydro-benzo[b][1,4]oxazepin-3-yl)-5-methyl-4-phenylpyrimidine-2-carboxamide]",12.1
24,"Cc1cnc(C(=O)N[C@H]2COc3cc(C#N)ccc3N(C)C2=O)nc1N1CCC(F)(F)C1 [Example 23, (S)-N-(8-cyano-5-methyl-4-oxo-2,3,4,5-tetrahydro-benzo[b][1,4]oxazepin-3-yl)-4-(3,3-difluoropyrrolidin-1-yl)-5-methylpyrimidine-2-carboxamide]",830
25,"CN1C(=O)[C@@H](NC(=O)c2ncc(Cl)c(-c3ccccc3)n2)COc2cc(C#N)ccc21 [Example 24, (S)-5-chloro-N-(8-cyano-5-methyl-4-oxo-2,3,4,5-tetrahydro-benzo[b][1,4]oxazepin-3-yl)-4-phenylpyrimidine-2-carboxamide]",19.2
26,"Cc1ccc(C(=O)Nc2cccc(Cl)c2F)nc1Br [Example 25, 6-bromo-N-(3-chloro-2-fluorophenyl)-5-methyl-picolinamide]",≥ 10000
27,"Cc1cnc(C(=O)N[C@H]2COc3ccc(N4CC5(CCOCC5)C4)cc3N(C)C2=O)nc1-c1ccccc1 [Example 26, (S)-5-methyl-N-(5-methyl-4-oxo-7-(7-oxa-2-azaspiro[3.5]nonan-2-yl)-2,3,4,5-tetrahydrobenzo[b]-[1,4]oxazepin-3-yl)-4-phenyl-pyrimidine-2-carboxamide]",14.6
28,"CN1C(=O)[C@@H](NC(=O)c2ncc(Cl)c(-c3ccccc3)n2)COc2cccnc21 [Example 27, (S)-5-chloro-N-(5-methyl-4-oxo-2,3,4,5-tetrahydropyrido[3,2-b][1,4]oxazepin-3-yl)-4-phenylpyrimidine-2-carboxamide]",26.7
29,"Cc1cnc(C(=O)N[C@H]2COc3cc(Br)cnc3N(C)C2=O)nc1-c1ccccc1 [Example 29, (S)-N-(8-bromo-5-methyl-4-oxo-2,3,4,5-tetrahydropyrido[3,2-b][1,4]oxazepin-3-yl)-5-methyl-4-phenylpyrimidine-2-carboxamide]",11.7
30,"Cc1ccc(-c2nc(C(=O)N[C@H]3COc4cc(C#N)ccc4N(C)C3=O)ncc2C)c(F)c1 [Example 30, (S)-N-(8-cyano-5-methyl-4-oxo-2,3,4,5-tetrahydro-benzo[b][1,4]oxazepin-3-yl)-4-(2-fluoro-4-methylphenyl)-5-methylpyrimidine-2-carboxamide]",32.3
